Patent US5880258A (dated 1999)
*1 amine or outer side, *2 acyl side, *3 side chain or, on linkers, in order; H or OH if unused. Where a SMILES comes first, the peptide text is derived from it. [ ]: non-standard residue; d: D form. The star is where a group is joined. sY = N[C@@H](Cc1ccc(OS(=O)(=O)O)cc1)C(=O)O; Asu = N[C@@H](CCCCCC(=O)O)C(=O)O; dAsu = N[C@H](CCCCCC(=O)O)C(=O)O; NH(3-hydroxypropyl) = OCCCN*; Suc = O=C(CCC(=O)[*:2])[*:1]; X1 = NS(=O)(=O)CCN*; Ava = NCCCCC(=O)O; βAla = NCCC(=O)O

Target: thrombin (Homo sapiens, UniProt P00734)
Experiment: anti-thrombin activity; clotting assay (coagulation time with fibrinogen as substrate)
Type: biochemical
Design: 100 μl of human-thrombin prepared at 10 NIH units/ml in aforesaid buffer
Settings: for IC50: concentration corresponding to 50 thrombin units, human-thrombin 10 NIH units/ml, human-fibrinogen 6 mg/ml, read-out: 50% Inhibition Concentration (converted); for Potency: calculated using the definition that HV-1 (54-65) potency is 1
Experimental: Measurement of anti-thrombin activity was done by looking at anti-coagulant activity as an index using fibrinogen as the substrate. That is, the compounds were dossolved in 200 μl of 0.1 mM Tris-HCl buffer (pH7.5) containing 0.1% polyethyleneglycol-6000, 100 μl of human-thrombin prepared at 10 NIH units/ml in aforesaid buffer, were added 200 μl of human-fibrinogen (Sigma) prepared at 6 mg/ml in aforesaid tris-hydrochloride buffer were added, and the coagulation time of the reaction mixtures were measured. For measuring of coagulation times, coagulation time analyzer (Amelung KC10A) was used. Obtained values were converted into units by using a previously prepared thrombin standard curve. Graphs were prepared by plotting the converted values on the vertical axis, and the concentrations of the compounds on the horizontal axis. In the graphs, the thrombin unit was defined as 100 at a compound concentration of 0. The concentration of compounds corresponding to 50 units were defined as 50% inhibitory concentrations of compounds.

CC[C@H](C)[C@H](NC(=O)[C@@H]1CCCN1C(=O)[C@H](CCC(=O)O)NC(=O)[C@H](Cc1ccccc1)NC(=O)CCC(=O)O)C(=O)N1CCC[C@H]1C(=O)N[C@@H](CCC(=O)O)C(=O)N[C@@H](Cc1ccc(O)cc1)C(=O)N[C@@H](Cc1ccc(O)cc1)C(=O)NCCC(=O)O [(K)] (Suc-FEPIPEYY[βAla]-OH)
IC50: 24.6 µM

CC[C@H](C)[C@H](NC(=O)[C@@H]1CCCN1C(=O)[C@H](CCC(=O)O)NC(=O)[C@H](Cc1ccccc1)NC(=O)CCC(=O)O)C(=O)N1CCC[C@H]1C(=O)N[C@@H](CCC(=O)O)C(=O)N[C@@H](Cc1ccc(O)cc1)C(=O)N[C@@H](Cc1ccc(O)cc1)C(=O)N[C@@H](CC(C)C)C(=O)N[C@@H](CCCCCC(=O)OC)C(=O)OC [(V)] (Suc-FEPIPEYYL[Asu](OMe)-OMe)
IC50: 20.7 µM

CCNC(=O)[C@H](CC(C)C)NC(=O)[C@H](Cc1ccc(O)cc1)NC(=O)[C@H](Cc1ccc(O)cc1)NC(=O)[C@H](CCC(=O)O)NC(=O)[C@@H]1CCCN1C(=O)[C@@H](NC(=O)[C@@H]1CCCN1C(=O)[C@H](CCC(=O)O)NC(=O)[C@H](Cc1ccccc1)NC(=O)CCC(=O)O)[C@@H](C)CC [(R)] (Suc-FEPIPEYYL-NHEt)
Potency: 0.18 | IC50: 27.8 µM

CC[C@H](C)[C@H](NC(=O)[C@H](CCC(=O)O)NC(=O)[C@H](CCC(=O)O)NC(=O)[C@H](Cc1ccccc1)NC(=O)[C@H](CC(=O)O)NC(=O)CN)C(=O)N1CCC[C@H]1C(=O)N[C@@H](Cc1ccc(O)cc1)C(=O)N[C@@H](Cc1ccc(OS(=O)(=O)O)cc1)C(=O)N[C@@H](Cc1ccc(O)cc1)C(=O)N[C@@H](CC(C)C)C(=O)N[C@@H](CCC(N)=O)C(=O)O (single isomer, unassigned) [Sulfated form of (B) peak 2, Gly--Asp--Phe--Glu--Glu--Ile--Pro--Tyr--Tyr(SO3 H)--Tyr--Leu--Gln]
IC50: 0.63 µM

CC[C@H](C)[C@H](NC(=O)[C@@H]1CCCN1C(=O)[C@H](CCC(=O)O)NC(=O)[C@H](Cc1ccccc1)NC(=O)CCC(=O)O)C(=O)N1CCC[C@H]1C(=O)N[C@@H](CCC(=O)O)C(=O)N[C@@H](Cc1ccc(O)cc1)C(=O)N[C@@H](Cc1ccc(O)cc1)C(=O)NCCCCC(=O)O [(L)] (Suc-FEPIPEYY[Ava]-OH)
IC50: 12.4 µM

CC[C@H](C)[C@H](NC(=O)[C@@H]1CCCN1C(=O)[C@H](CCC(=O)O)NC(=O)[C@H](Cc1ccccc1)NC(=O)CCC(=O)O)C(=O)N1CCC[C@H]1C(=O)N[C@@H](CCC(=O)O)C(=O)N[C@@H](Cc1ccc(O)cc1)C(=O)N[C@@H](Cc1ccc(O)cc1)C(=O)N[C@@H](CC(C)C)C(=O)NCCS(N)(=O)=O [(S)] (Suc-FEPIPEYYL-X1)
IC50: 72.4 µM

CC[C@H](C)[C@H](NC(=O)[C@@H]1CCCN1C(=O)[C@H](CCC(=O)O)NC(=O)[C@H](Cc1ccccc1)NC(=O)CCC(=O)O)C(=O)N1CCC[C@H]1C(=O)N[C@@H](CCC(=O)O)C(=O)N[C@@H](Cc1ccc(O)cc1)C(=O)N[C@@H](Cc1ccc(O)cc1)C(=O)NCCCO [(N)] (Suc-FEPIPEYY-{NH(3-hydroxypropyl)})
IC50: 84.9 µM

CC[C@H](C)[C@H](NC(=O)[C@@H]1CCCN1C(=O)[C@H](CCC(=O)O)NC(=O)[C@H](Cc1ccccc1)NC(=O)[C@H](CC(=O)O)NC(=O)CNC(=O)CCC(=O)O)C(=O)N1CCC[C@H]1C(=O)N[C@@H](CCC(=O)O)C(=O)N[C@@H](Cc1ccc(OS(=O)(=O)O)cc1)C(=O)N[C@@H](Cc1ccc(OS(=O)(=O)O)cc1)C(=O)N[C@@H](CC(C)C)C(=O)N[C@@H](CCC(N)=O)C(N)=O [Sulfated form of (D), Suc--Gly--Asp--Phe--Glu--Pro--Ile--Pro--Glu--Tyr(SO3 H)--Tyr(SO3 H)--Leu--Gln--NH2] (Suc-GDFEPIPE[sY][sY]LQ-NH2)
Potency: 57.07 | IC50: 0.0669 µM

CC[C@H](C)[C@H](NC(=O)[C@@H]1CCCN1C(=O)[C@H](CCC(=O)O)NC(=O)CCC(=O)O)C(=O)N1CCC[C@H]1C(=O)N[C@@H](CCC(=O)O)C(=O)N[C@@H](Cc1ccc(OS(=O)(=O)O)cc1)C(=O)N[C@@H](Cc1ccc(OS(=O)(=O)O)cc1)C(=O)N[C@@H](CC(C)C)C(=O)N[C@@H](CCC(N)=O)C(=O)O [Sulfated form of (H), Suc--Glu--Pro--Ile--Pro--Glu--Tyr(SO3 H)--Tyr(SO3 H)--Leu--Gln--OH] (Suc-EPIPE[sY][sY]LQ-OH)
Potency: < 0.05 | IC50: > 142 µM

CC[C@H](C)[C@H](NC(=O)[C@@H]1CCCN1C(=O)[C@H](CCC(=O)O)NC(=O)[C@H](Cc1ccccc1)NC(=O)[C@H](CC(=O)O)NC(=O)CNC(=O)CCC(=O)O)C(=O)N1CCC[C@H]1C(=O)N[C@@H](CCC(=O)O)C(=O)N[C@@H](Cc1ccc(O)cc1)C(=O)N[C@@H](Cc1ccc(O)cc1)C(=O)N[C@@H](CC(C)C)C(=O)N[C@@H](CCC(N)=O)C(=O)O [(C)] (Suc-GDFEPIPEYYLQ-OH)
Potency: 1.76 | IC50: 2.39 µM

CC[C@H](C)[C@H](NC(=O)[C@H](CCC(=O)O)NC(=O)[C@H](CCC(=O)O)NC(=O)[C@H](Cc1ccccc1)NC(=O)[C@H](CC(=O)O)NC(=O)CN)C(=O)N1CCC[C@H]1C(=O)N[C@@H](Cc1ccc(O)cc1)C(=O)N[C@@H](Cc1ccc(OS(=O)(=O)O)cc1)C(=O)N[C@@H](Cc1ccc(OS(=O)(=O)O)cc1)C(=O)N[C@@H](CC(C)C)C(=O)N[C@@H](CCC(N)=O)C(=O)O (single isomer, unassigned) [Sulfated form of (B) peak 1, Gly--Asp--Phe--Glu--Glu--Ile--Pro--Tyr--Tyr(SO3 H)--Tyr(SO3 H)--Leu--Gln]
IC50: 0.291 µM

CC[C@H](C)[C@H](NC(=O)[C@@H]1CCCN1C(=O)[C@H](CCC(=O)O)NC(=O)[C@H](Cc1ccccc1)NC(=O)CCC(=O)O)C(=O)N1CCC[C@H]1C(=O)N[C@@H](CCC(=O)O)C(=O)N[C@@H](Cc1ccc(O)cc1)C(=O)N[C@@H](Cc1ccc(O)cc1)C(=O)N[C@@H](CCCCCC(=O)OC)C(=O)OC [(O)] (Suc-FEPIPEYY[Asu](OMe)-OMe)
IC50: 26 µM

CC[C@H](C)[C@H](NC(=O)[C@@H]1CCCN1C(=O)[C@H](CCC(=O)O)NC(=O)[C@H](Cc1ccccc1)NC(=O)CCC(=O)O)C(=O)N1CCC[C@H]1C(=O)N[C@@H](CCC(=O)O)C(=O)N[C@@H](Cc1ccc(OS(=O)(=O)O)cc1)C(=O)N[C@@H](Cc1ccc(OS(=O)(=O)O)cc1)C(=O)NCCCCC(=O)O [Sulfated form of (L), Suc--Phe--Glu--Pro--Ile--Pro--Glu--Tyr(SO3 H)--Tyr(SO3 H)--NH(CH2)4 COOH] (Suc-FEPIPE[sY][sY][Ava]-OH)
IC50: 2.22 µM

CC[C@H](C)[C@H](NC(=O)[C@H](CCC(=O)O)NC(=O)[C@H](CCC(=O)O)NC(=O)[C@H](Cc1ccccc1)NC(=O)[C@H](CC(=O)O)NC(=O)CN)C(=O)N1CCC[C@H]1C(=O)N[C@@H](CCC(=O)O)C(=O)N[C@@H](Cc1ccc(O)cc1)C(=O)N[C@@H](Cc1ccc(OS(=O)(=O)O)cc1)C(=O)N[C@@H](CC(C)C)C(=O)N[C@@H](CCC(N)=O)C(=O)O [Sulfated form of (A), Gly--Asp--Phe--Glu--Glu--Ile--Pro--Glu--Tyr--Tyr(SO3 H)--Leu--Gln] (H-GDFEEIPEY[sY]LQ-OH)
IC50: 2.15 µM

CC[C@H](C)[C@H](NC(=O)[C@@H]1CCCN1C(=O)[C@H](CCC(=O)O)NC(=O)[C@H](Cc1ccccc1)NC(=O)CCC(=O)O)C(=O)N1CCC[C@H]1C(=O)N[C@@H](CCC(=O)O)C(=O)N[C@@H](Cc1ccc(O)cc1)C(=O)N[C@@H](Cc1ccc(O)cc1)C(=O)N[C@@H](CC(C)C)C(=O)N[C@H](CCCCCC(=O)OC)C(=O)OC [(U)] (Suc-FEPIPEYYL[dAsu](OMe)-OMe)
IC50: 32.3 µM

CC[C@H](C)[C@H](NC(=O)[C@@H]1CCCN1C(=O)[C@H](CCC(=O)O)NC(=O)[C@H](Cc1ccccc1)NC(=O)CCC(=O)O)C(=O)N1CCC[C@H]1C(=O)N[C@@H](CCC(=O)O)C(=O)N[C@@H](Cc1ccc(OS(=O)(=O)O)cc1)C(=O)N[C@@H](Cc1ccc(OS(=O)(=O)O)cc1)C(=O)N[C@@H](CC(C)C)C(=O)N[C@H](CCC(=O)O)C(=O)O [Sulfated form of (T), Suc--Phe--Glu--Pro--Ile--Pro--Glu--Tyr(SO3 H)--Tyr(SO3 H)--Leu--(D)Glu--OH] (Suc-FEPIPE[sY][sY]L[dE]-OH)
Potency: 8.32 | IC50: 0.509 µM

CC[C@H](C)[C@H](NC(=O)[C@H](CCC(=O)O)NC(=O)[C@H](CCC(=O)O)NC(=O)[C@H](Cc1ccccc1)NC(=O)[C@H](CC(=O)O)NC(=O)CN)C(=O)N1CCC[C@H]1C(=O)N[C@@H](Cc1ccc(O)cc1)C(=O)N[C@@H](Cc1ccc(O)cc1)C(=O)N[C@@H](Cc1ccc(OS(=O)(=O)O)cc1)C(=O)N[C@@H](CC(C)C)C(=O)N[C@@H](CCC(N)=O)C(=O)O (single isomer, unassigned) [Sulfated form of (B) peak 3, Gly--Asp--Phe--Glu--Glu--Ile--Pro--Tyr--Tyr--Tyr(SO3 H)--Leu--Gln]
IC50: 2.49 µM

CC[C@H](C)[C@H](NC(=O)[C@@H]1CCCN1C(=O)[C@H](CCC(=O)O)NC(=O)[C@H](Cc1ccccc1)NC(=O)CCC(=O)O)C(=O)N1CCC[C@H]1C(=O)N[C@@H](CCC(=O)O)C(=O)N[C@@H](Cc1ccc(O)cc1)C(=O)N[C@@H](Cc1ccc(O)cc1)C(=O)N[C@@H](CC(C)C)C(=O)N[C@H](CCCCCC(N)=O)C(N)=O [(W)] (Suc-FEPIPEYYL[dAsu](NH2)-NH2)
IC50: 24.3 µM
